Results published in patent US7365225B2, “Aryl dicarboxamides” (Laboratoires Serono SA, priority 2003, dated 2008).

How the values were obtained:
Type in all cases: biochemical
SHP-1 = molecular target: T1, SHP-1 (Homo sapiens, UniProt P29350); assay: PTP Enzyme Assay (DiFMUP), SHP-1; conditions: catalytic core of human recombinant PTP; 20 μM DiFMUP; 30 minutes at room temperature; read-out: IC50 value in respect of SHP-1
T1 construct: using the catalytic core of a human recombinant PTP as the enzyme; made in house
T1 sequence (P29350 244-515 limits assumed): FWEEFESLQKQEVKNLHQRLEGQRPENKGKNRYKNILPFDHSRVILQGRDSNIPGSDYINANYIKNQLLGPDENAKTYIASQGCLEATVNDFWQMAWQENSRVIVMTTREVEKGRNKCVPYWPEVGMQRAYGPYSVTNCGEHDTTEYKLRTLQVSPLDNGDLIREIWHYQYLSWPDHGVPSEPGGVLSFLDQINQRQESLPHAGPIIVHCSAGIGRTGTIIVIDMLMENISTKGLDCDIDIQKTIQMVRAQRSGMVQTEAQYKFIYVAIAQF
Experimental: (§1) The PTP Enzyme Assay aims at determining the extent of inhibition of PTPs, e.g. of PTP1B, SHP-1, SHP-2, or GLEPP-1 in the presence of a test compound of formula (I). The inhibition is illustrated by IC50 values which denote the concentration of test compound necessary to achieve an inhibition of 50% of said PTP's using the following concentration of the PTP substrate DiFMUP: • 5 μM DiFMUP for PTP1B; • 20 μM DiFMUP for SHP-1 and SHP-2; • 30 μM DiFMUP for GLEPP-1. a) PTPs Cloning […]
(§2) Assays were performed in a 96 well plate format, using the catalytic core of a human recombinant PTP as the enzyme and 6,8-DiFluoro-4-MethylUmbelliferyl Phosphate (DiFMUP, Molecular Probes, D-6567) as a substrate. […] The reaction ran for 30 minutes at room temperature before reading the fluorescence intensity (integral or intensity) on a Perkin-Elmer Victor 2 spectrofluorimeter (excitation of 6,8-difluoro-7-hydroxy coumarin is at 355 nm, the emission at 460 nm, for 0.1 s). The percentage of inhibition is determined by measuring the relative fluorescence ion absence of a test compound (PTP inhibitor), i.e. with the solvent alone (5% DMSO). The IC50 values for inhibition were determined in triplicates.

PTP1B = molecular target: T2, PTP1B (Homo sapiens, UniProt P18031); assay: PTP Enzyme Assay (DiFMUP), PTP1B; conditions: catalytic core of human recombinant PTP; 5 μM DiFMUP; 30 minutes at room temperature; read-out: IC50 value in respect of PTP1B
T2 construct: using the catalytic core of a human recombinant PTP as the enzyme; made in house
T2 sequence (P18031 3-277 limits assumed): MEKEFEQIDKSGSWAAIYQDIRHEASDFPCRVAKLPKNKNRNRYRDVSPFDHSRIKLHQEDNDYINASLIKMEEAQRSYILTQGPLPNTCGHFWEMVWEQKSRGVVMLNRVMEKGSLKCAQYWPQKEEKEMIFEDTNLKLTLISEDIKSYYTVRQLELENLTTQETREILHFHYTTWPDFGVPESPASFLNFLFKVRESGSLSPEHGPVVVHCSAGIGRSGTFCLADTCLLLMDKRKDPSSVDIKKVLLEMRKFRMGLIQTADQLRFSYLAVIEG
Experimental: The PTP Enzyme Assay aims at determining the extent of inhibition of PTPs, e.g. of PTP1B, SHP-1, SHP-2, or GLEPP-1 in the presence of a test compound of formula (I). The inhibition is illustrated by IC50 values which denote the concentration of test compound necessary to achieve an inhibition of 50% of said PTP's using the following concentration of the PTP substrate DiFMUP: • 5 μM DiFMUP for PTP1B; • 20 μM DiFMUP for SHP-1 and SHP-2; • 30 μM DiFMUP for GLEPP-1. a) PTPs Cloning
The cloning and expression of the catalytic domain e.g. of PTP1B, may be performed as described in J. Biol. Chem. 2000, 275(13), pp 9792-9796. […]
as §2

SHP-2 = molecular target: T3, SHP-2 (Homo sapiens, UniProt Q06124); assay: PTP Enzyme Assay (DiFMUP), SHP-2; conditions: catalytic core of human recombinant PTP; 20 μM DiFMUP; 30 minutes at room temperature; read-out: IC50 value in respect of SHP-2
T3 construct: using the catalytic core of a human recombinant PTP as the enzyme; made in house
T3 sequence (Q06124 247-517 limits assumed): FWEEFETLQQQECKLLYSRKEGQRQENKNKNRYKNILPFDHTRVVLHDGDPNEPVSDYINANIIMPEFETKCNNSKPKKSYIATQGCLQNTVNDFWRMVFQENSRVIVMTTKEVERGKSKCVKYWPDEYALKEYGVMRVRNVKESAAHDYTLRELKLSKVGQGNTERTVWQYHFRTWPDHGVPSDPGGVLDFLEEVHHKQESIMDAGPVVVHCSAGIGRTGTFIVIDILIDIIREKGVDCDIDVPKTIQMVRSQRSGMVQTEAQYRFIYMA
Experimental: as §1, §2

GLEPP-1 = molecular target: T4, GLEPP-1 (Homo sapiens, UniProt Q16827); assay: PTP Enzyme Assay (DiFMUP), GLEPP-1; conditions: catalytic core of human recombinant PTP; 30 μM DiFMUP; 30 minutes at room temperature; read-out: IC50 value in respect of GLEPP-1
T4 construct: using the catalytic core of a human recombinant PTP as the enzyme; made in house
T4 sequence (Q16827 938-1195 limits assumed): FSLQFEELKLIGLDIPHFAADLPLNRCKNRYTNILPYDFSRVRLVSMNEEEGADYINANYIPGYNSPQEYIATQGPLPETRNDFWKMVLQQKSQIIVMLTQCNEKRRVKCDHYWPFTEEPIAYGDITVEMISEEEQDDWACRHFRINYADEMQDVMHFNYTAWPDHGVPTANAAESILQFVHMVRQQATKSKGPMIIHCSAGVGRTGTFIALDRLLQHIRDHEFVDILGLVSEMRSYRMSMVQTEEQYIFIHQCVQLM
Experimental: as §1, §2

**Q.** What does the source list for O=C(NCc1ccc(Oc2ccccc2)cc1)c1ccc(CN(C(=O)CCC2CCCC2)c2ccc(O)c(C(=O)O)c2)cc1 [Example 1, 5-[(3-cyclopentylpropanoyl)(4-{[(4-phenoxybenzyl)amino]carbonyl}benzyl)amino]-2-hydroxybenzoic acid]?
**A.** IC50 (SHP-1): 4000 nM; IC50 (PTP1B): 1000 nM; IC50 (SHP-2): 1900 nM; IC50 (GLEPP-1): 1200 nM
